Data set [1] can be described thus: Water adsorption properties by dynamic vapour sorption (DVS). In kind it is physicochemical. As to the method: From the examination of water adsorption properties important conclusions can be made about the physical and chemical stability of a compound. Amorphous compounds can adsorb more water from the air. This property is deliberately disadvantageous during the preparation process of a pharmaceutical composition, since the real amount of the active ingredient can't be measured because of the adsorbed water.
Water adsorption properties of the compounds were measured by dynamic vapour sorption technique (DVS). […]

Data set [2] in a line: Fast Stability Test (solid stored on a plate at 40° C. in air, impurity by HPLC). Conditions: for N-demethyl-derivative of CDB-4124: largest degradation product; for N-demethyl-derivative of CDB-4124 / Impurity: HPLC; for Impurity: stored on a plate at 40° C. in the presence of air. In kind it is physicochemical. As to the method: Amorphous and crystalline forms were stored on a plate at 40° C. in the presence of air for 10 days. Impurity was measured at different times using HPLC equipment. […]

As to `COCC(=O)[C@@]1(OC(C)=O)CC[C@H]2[C@@H]3CCC4=CC(=O)CCC4=C3[C@@H](c3ccc(N(C)C)cc3)C[C@@]21C` [Amorphous form, 17α-acetoxy-21-methoxy-11β-[4-N,N-dimethylaminophenyl]-19-norpregna-4,9-diene-3,20-dione, reference compound], in data set [1] (DVS, 25° C., 0%-90% relative humidity, as humidity was increased), the “water adsorbed (max.)” value is 2 m/m %.

`COCC(=O)[C@@]1(OC(C)=O)CC[C@H]2[C@@H]3CCC4=CC(=O)CCC4=C3[C@@H](c3ccc(N(C)C)cc3)C[C@@]21C` [Form A, 17α-acetoxy-21-methoxy-11β-[4-N,N-dimethylaminophenyl]-19-norpregna-4,9-diene-3,20-dione]: the “stability (purity examination)” value in data set [2] (40° C., air, 10 days, compared with amorphous form) is on record as “much better than that of the amorphous form”. The “N-demethyl-derivative of CDB-4124” value was 0.18% in data set [2] (Day 0, 40° C., air); 0.18% in data set [2] (Day 1, 40° C., air); 0.18% in data set [2] (Day 2, 40° C., air); 0.23% in data set [2] (Day 10, 40° C., air). In addition, the Impurity was found to be 0.33% in data set [2] (Day 0); 0.33% in data set [2] (Day 1); 0.35% in data set [2] (Day 2); 0.43% in data set [2] (Day 6); 0.48% in data set [2] (Day 10). In data set [1] (DVS, 25° C., 0%-90% relative humidity), the “mass change as the degree of humidity was increased” value is recorded as “barely changed”. Further, in data set [1] (room-temperature, independently of a change in relative humidity), the “physical stability on change in relative humidity” value is recorded as “stable anhydrate”.

(Values after patent US8513228B2, “Crystalline form of antiprogestin CDB-4124” (Richter Gedeon Nyrt., priority 2009, dated 2013).)
